Assay results reported in US20230114728A1 (Venatorx Pharmaceuticals, Inc., priority 2019, published 2023).
Converted amounts (≈) assume the structure as drawn.

Legend:
Experiment in all cases: Liquid broth MIC in Fastidious broth
Assay type in all cases: cell-based
[1] = test system: N. gonorrhoeae WHO L; conditions: Neisseria gonorrhoeae; N. gonorrhoeae strain WHO L; Fastidious broth; read-out: Minimum Inhibitory Concentration, N. gonorrhoeae WHO L
Experimental: (§1) Example V: In Vitro Antibacterial Assays for N. gonorrhoeae Strains
(§2) Additional antibacterial testing of the series was performed in 8 reference strains of N. gonorrhoeae (ATCC 49226, FA1090, WHO G, WHO L, WHO K, H041, WHO Z, and WHO Q). ATCC 49226, FA1090, WHO G, and WHO L produce wild type or wild-type like PBP2. WHO K, H041, WHO Z, and WHO Q produce mosaic PBP2. Liquid broth-based assays were used for antibacterial testing of PBP inhibitors in Neisseria gonorrhoeae. Briefly, cryo-preserved bacterial cultures of clinical strains were streaked for isolation on Chocolate Agar (72 g/L (2×) GC Agar Base (BD #228950) and 2% (2×) Hemoglobin was autoclaved at 121° C. for 20 minutes to sterilize. Once cooled to ˜50° C. the 2× GC Agar Base and 2× Hemoglobin solutions are combined and 1% IsoVitaleX Enrichment (BD #211876) was added to the solution). Strains were incubated at 36° C. and 5% CO2 to allow growth of colonies, 24 hours before inoculum preparation. 2-fold serial dilutions of test compounds were conducted in a 96 well plate with a final volume of 75 μL per well at 2-fold the final desired concentration in Fastidious broth (Remel #R07664). For preparation of assay inoculum, a direct suspension was prepared by aseptically swabbing all colonies from agar plates into culture tubes containing 2 mL of fresh sterile saline. After the dilution plates were set up, direct suspensions were then diluted in a cuvette containing sterile saline and the optical density was measured at 600 nm. Inocula were diluted such that 75 μL of this culture in Fastidious broth results in a starting bacterial concentration of 5×10^5 CFU/mL when added to the dilution plates. The plates were incubated for ˜24 hours at 36° C. and 5% CO2. The MIC was read visually as the lowest concentration well with <10% bacterial growth compared to wells of full growth.

[2] = test system: N. gonorrhoeae WHO G; conditions: Neisseria gonorrhoeae; N. gonorrhoeae strain WHO G; Fastidious broth; read-out: Minimum Inhibitory Concentration, N. gonorrhoeae WHO G
Experimental: as §1, §2

[3] = test system: N. gonorrhoeae H041; conditions: Neisseria gonorrhoeae, H041, read-out: Minimum Inhibitory Concentration, N. gonorrhoeae H041
Experimental: as §1, §2

[4] = test system: N. gonorrhoeae WHO Z; conditions: Neisseria gonorrhoeae, read-out: Minimum Inhibitory Concentration, N. gonorrhoeae WHO Z
Experimental: as §1, §2

[5] = test system: N. gonorrhoeae WHO K; conditions: Neisseria gonorrhoeae, read-out: Minimum Inhibitory Concentration, N. gonorrhoeae WHO K
Experimental: as §1, §2

[6] = test system: N. gonorrhoeae FA1090; conditions: Neisseria gonorrhoeae; N. gonorrhoeae strain FA1090; Fastidious broth; read-out: Minimum Inhibitory Concentration, N. gonorrhoeae FA1090
Experimental: as §1, §2

[7] = test system: N. gonorrhoeae WHO Q; conditions: Neisseria gonorrhoeae, read-out: Minimum Inhibitory Concentration, N. gonorrhoeae WHO Q
Experimental: as §1, §2

[8] = test system: N. gonorrhoeae ATCC 49226; conditions: Neisseria gonorrhoeae, ATCC49226; N. gonorrhoeae strain ATCC 49226; Fastidious broth; read-out: Minimum Inhibitory Concentration, N. gonorrhoeae ATCC 49226
Experimental: as §1, §2

| Compound | MIC [1] [µg/mL] | MIC [2] [µg/mL] | MIC [3] [µg/mL] | MIC [4] [µg/mL] | MIC [5] [µg/mL] | MIC [6] [µg/mL] | MIC [7] [µg/mL] | MIC [8] [µg/mL] |
| --- | --- | --- | --- | --- | --- | --- | --- | --- |
| CCN1CCN(C(=O)NC(C(=O)N[C@H]2Cc3cccc(C(=O)O)c3OB2O)c2cc(O)cc(O)c2)C(=O)C1=O (mixture of isomers) [Example 79, (3R)-3-(2-(3,5-dihydroxyphenyl)-2-(4-ethyl-2,3-dioxopiperazine-1-carboxamido)acetamido)-2-hydroxy-3,4-dihydro-2H-benzo[e][1,2]oxaborinine-8-carboxylic acid] | 16 to 32 | 1 to 2 | 16 to 32 | 4 to 8 | 16 to 32 | < 0.125 | 4 to 8 | 1 to 2 |
| CCN1CCN(C(=O)N[C@H](C(=O)N[C@H]2Cc3cccc(C(=O)O)c3OB2O)c2cc(O)cc(O)c2)C(=O)C1=O (single isomer, unassigned) [Example 81] | 16 to 32 (≈ 29.6 to 59.2 µM) | 0.25 to 0.5 (≈ 0.463 to 0.925 µM) | 16 to 32 (≈ 29.6 to 59.2 µM) | 16 to 32 (≈ 29.6 to 59.2 µM) | 16 to 32 (≈ 29.6 to 59.2 µM) | 0.25 to 0.5 (≈ 0.463 to 0.925 µM) | 16 to 32 (≈ 29.6 to 59.2 µM) | 4 to 8 (≈ 7.4 to 14.8 µM) |
| CCN1CCN(C(=O)N[C@@H](C(=O)N[C@H]2Cc3cccc(C(=O)O)c3OB2O)c2cc(O)cc(O)c2)C(=O)C1=O (single isomer, unassigned) [Example 82] | 16 to 32 (≈ 29.6 to 59.2 µM) | 0.25 to 0.5 (≈ 0.463 to 0.925 µM) | 4 to 8 (≈ 7.4 to 14.8 µM) | 4 to 8 (≈ 7.4 to 14.8 µM) | 4 to 8 (≈ 7.4 to 14.8 µM) | < 0.125 | 4 to 8 (≈ 7.4 to 14.8 µM) | 4 to 8 (≈ 7.4 to 14.8 µM) |
| NCCN1CCN(C(=O)N[C@H](C(=O)N[C@H]2Cc3cccc(C(=O)O)c3OB2O)c2ccc(C(=O)O)cc2)C(=O)C1=O (single isomer, unassigned) [Example 83] | > 64 | 4 to 8 (≈ 7.05 to 14.1 µM) | > 64 | > 64 | > 64 | 1 to 2 (≈ 1.76 to 3.53 µM) | > 64 | 16 to 32 (≈ 28.2 to 56.4 µM) |
| NCCN1CCN(C(=O)N[C@H](C(=O)N[C@H]2Cc3cccc(C(=O)O)c3OB2O)c2ccc(O)cc2F)C(=O)C1=O (single isomer, unassigned) [Example 88] | > 64 | 16 to 32 (≈ 28.7 to 57.4 µM) | > 64 | > 64 | > 64 | 4 to 8 (≈ 7.18 to 14.4 µM) | > 64 | > 64 |
| NCCN1CCN(C(=O)N[C@@H](C(=O)N[C@H]2Cc3cccc(C(=O)O)c3OB2O)c2ccc(O)cc2F)C(=O)C1=O (single isomer, unassigned) [Example 89] | > 64 | 4 to 8 (≈ 7.18 to 14.4 µM) | > 64 | > 64 | > 64 | 1 to 2 (≈ 1.79 to 3.59 µM) | > 64 | 16 to 32 (≈ 28.7 to 57.4 µM) |
| CCN1CCN(C(=O)N[C@@H](C(=O)N[C@H]2Cc3cccc(C(=O)O)c3OB2O)c2cc(Cl)c(O)cc2Cl)C(=O)C1=O (single isomer, unassigned) [Example 91] | > 64 | 1 to 2 (≈ 1.69 to 3.37 µM) | 16 to 32 (≈ 27 to 53.9 µM) | 16 to 32 (≈ 27 to 53.9 µM) | 16 to 32 (≈ 27 to 53.9 µM) | 0.25 to 0.5 (≈ 0.421 to 0.843 µM) | 16 to 32 (≈ 27 to 53.9 µM) | 16 to 32 (≈ 27 to 53.9 µM) |
| CCN1CCN(C(=O)N[C@H](C(=O)N[C@H]2Cc3cccc(C(=O)O)c3OB2O)c2cc(Cl)c(O)cc2Cl)C(=O)C1=O (single isomer, unassigned) [Example 92] | > 64 | > 64 | > 64 | > 64 | > 64 | 16 to 32 (≈ 27 to 53.9 µM) | > 64 | > 64 |
| CCN1CCN(C(=O)NC(C(=O)N[C@H]2Cc3ccc(F)c(C(=O)O)c3OB2O)c2nc(N)sc2F)C(=O)C1=O (stereo partly drawn) [Example 18, (3R)-3-(2-(2-amino-5-fluorothiazol-4-yl)-2-(4-ethyl-2,3-dioxopiperazine-1-carboxamido)acetamido)-7-fluoro-2-hydroxy-3,4-dihydro-2H-benzo[e][1,2]oxaborinine-8-carboxylic acid] | 16 to 32 (≈ 28.3 to 56.5 µM) | 4 to 8 (≈ 7.06 to 14.1 µM) | 16 to 32 (≈ 28.3 to 56.5 µM) | 4 to 8 (≈ 7.06 to 14.1 µM) | 16 to 32 (≈ 28.3 to 56.5 µM) | 1 to 2 (≈ 1.77 to 3.53 µM) | – | 4 to 8 (≈ 7.06 to 14.1 µM) |
| CCN1CCN(C(=O)NC(C(=O)N[C@H]2Cc3cccc(C(=O)O)c3OB2O)c2ccc(C(N)=O)c(O)c2)C(=O)C1=O (stereo partly drawn) [Example 45, (3R)-3-(2-(4-carbamoyl-3-hydroxyphenyl)-2-(4-ethyl-2,3-dioxopiperazine-1-carboxamido)acetamido)-2-hydroxy-3,4-dihydro-2H-benzo[e][1,2]oxaborinine-8-carboxylic acid] | 16 to 32 (≈ 28.2 to 56.4 µM) | 0.25 to 0.5 (≈ 0.441 to 0.881 µM) | 16 to 32 (≈ 28.2 to 56.4 µM) | 16 to 32 (≈ 28.2 to 56.4 µM) | 16 to 32 (≈ 28.2 to 56.4 µM) | < 0.125 | 16 to 32 (≈ 28.2 to 56.4 µM) | 1 to 2 (≈ 1.76 to 3.53 µM) |
| O=C(Nc1ccccc1)NC(C(=O)N[C@H]1Cc2ccc(F)c(C(=O)O)c2OB1O)c1ncc(O)cc1F (stereo partly drawn) [Example 49, (3R)-7-fluoro-3-(2-(3-fluoro-5-hydroxypyridin-2-yl)-2-(3-phenylureido)acetamido)-2-hydroxy-3,4-dihydro-2H-benzo[e][1,2]oxaborinine-8-carboxylic acid] | 16 to 32 (≈ 31.2 to 62.5 µM) | 16 to 32 (≈ 31.2 to 62.5 µM) | > 64 | – | > 64 | 4 to 8 (≈ 7.81 to 15.6 µM) | – | 16 to 32 (≈ 31.2 to 62.5 µM) |
| CCN1CCN(C(=O)NC(C(=O)N[C@H]2Cc3cccc(C(=O)O)c3OB2O)c2ccc(N)c(F)c2)C(=O)C1=O (stereo partly drawn) [Example 50, (3R)-3-(2-(4-amino-3-fluorophenyl)-2-(4-ethyl-2,3-dioxopiperazine-1-carboxamido)acetamido)-2-hydroxy-3,4-dihydro-2H-benzo[e][1,2]oxaborinine-8-carboxylic acid] | 16 to 32 (≈ 29.6 to 59.1 µM) | 1 to 2 (≈ 1.85 to 3.69 µM) | 16 to 32 (≈ 29.6 to 59.1 µM) | – | 16 to 32 (≈ 29.6 to 59.1 µM) | < 0.125 | – | 1 to 2 (≈ 1.85 to 3.69 µM) |
| N=C(N)NCCN1CCN(C(=O)NC(C(=O)N[C@H]2Cc3ccc(F)c(C(=O)O)c3OB2O)c2ncc(O)cc2F)C(=O)C1=O (stereo partly drawn) [Example 51, (3R)-7-fluoro-3-(2-(3-fluoro-5-hydroxypyridin-2-yl)-2-(4-(2-guanidinoethyl)-2,3-dioxopiperazine-1-carboxamido)acetamido)-2-hydroxy-3,4-dihydro-2H-benzo[e][1,2]oxaborinine-8-carboxylic acid] | > 64 | 4 to 8 (≈ 6.47 to 12.9 µM) | > 64 | – | > 64 | 4 to 8 (≈ 6.47 to 12.9 µM) | – | 4 to 8 (≈ 6.47 to 12.9 µM) |
| N=C(N)NC(C(=O)N[C@H]1Cc2ccc(F)c(C(=O)O)c2OB1O)c1ncc(O)cc1F (stereo partly drawn) [Example 52, (3R)-7-fluoro-3-(2-(3-fluoro-5-hydroxypyridin-2-yl)-2-guanidinoacetamido)-2-hydroxy-3,4-dihydro-2H-benzo[e][1,2]oxaborinine-8-carboxylic acid] | > 64 | > 64 | > 64 | – | > 64 | > 64 | – | > 64 |
